The text below walks through data of the supplement of paper PMC10307832.

What all share (experiment): relative viability (nuclei count vs DMSO), 5 days (fraction); higher = more cells survive
Compound in assay [1]: C1CSC2=C(C(=O)N1)SC3=C2C=C(C=C3)O [kb NB 142-70]
A digest of the protocol: (§1)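 Viability is treated-well nuclei as a fraction of vehicle-well nuclei, reported as the median across plates. Before counting, lung cancer cell lines were kept overnight at 37 °C in 1536-well plates, pinned with five √10-spaced library-drug doses on vehicle-anchored plates, and left 5 days without medium change, then fixed, permeabilised and Hoechst-stained in one step, imaged at 4× and counted by MetaXpress. A plate passed only if control CV was below 25% and at least one doubling occurred.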

Compound in assay [2]: NCC(=O)Nc1ccc(-n2nc(C(F)(F)F)cc2-c2ccc3c(ccc4ccccc43)c2)cc1
A digest of the protocol: as §1

Compound in assay [3]: C1CSC2=C(C(=O)N1)SC3=C2C=C(C=C3)O [kb NB 142-70] + Cc1cc(Nc2cc(N3CCN(C)CC3)nc(Sc3ccc(NC(=O)C4CC4)cc3)n2)n[nH]1 [Tozasertib] (partner 0.1 µM)
A digest of the protocol: (§2)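 Relative viability divides the nuclei count in treated wells by that in vehicle wells. Lung cancer cell lines were seeded in 1536-well plates, dosed by pin tool the next day, and fixed and stained after 5 days in one step with final 0.05% Triton X-100, 1% formaldehyde and 1 ug/ml Hoechst. Dosing was a single drug or a fixed anchor-drug dose plus five library-drug doses (not always all listed) in √10 steps, and values are medians of duplicate plates imaged at 4×.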

Compound in assay [4]: NCC(=O)Nc1ccc(-n2nc(C(F)(F)F)cc2-c2ccc3c(ccc4ccccc43)c2)cc1 + CC(=O)c1c(C)c2cnc(Nc3ccc(N4CCNCC4)cn3)nc2n(C2CCCC2)c1=O [Palbociclib] (partner 0.5 µM)
An outline of the steps:
as §2

Compound in assay [5]: C1CSC2=C(C(=O)N1)SC3=C2C=C(C=C3)O [kb NB 142-70] + COc1cc2c(Oc3ccc(NC(=O)C4(C(=O)Nc5ccc(F)cc5)CC4)cc3F)ccnc2cc1OCCCN1CCOCC1 [Foretinib] (partner 0.25 µM)
An outline of the steps: as §2

For the cell line UMC-11, the relative viability in assay [1] (0.1 µM) turned out to be 1.03; in assay [1] (1 µM) it was 0.973; in assay [1] (3.162 µM), 0.572; in assay [2] (0.02 µM) it was 0.93; in assay [2] (0.06325 µM), 1; in assay [2] (0.2 µM), 1.05. The relative viability was 1.01 in assay [2] (0.6325 µM); 0.931 in assay [2] (2 µM); 0.217 in assay [3] (first compound 0.1 µM); 0.179 in assay [3] (first compound 1 µM); 0.18 in assay [3] (first compound 3.162 µM); 0.301 in assay [4] (first compound 0.02 µM). Further, the relative viability in assay [4] (first compound 0.06325 µM) is 0.305; in assay [4] (first compound 0.2 µM), 0.297; in assay [4] (first compound 0.6325 µM), 0.325; in assay [4] (first compound 2 µM), 0.344; in assay [5] (first compound 0.1 µM) it was 0.934; in assay [5] (first compound 1 µM), 0.92. Moreover, the relative viability in assay [5] (first compound 3.162 µM) turned out to be 0.64.
